According to patent publication US20260176290A1, “INHIBITORS OF KRAS(G12D)” (Ranok Therapeutics (Hangzhou) Co. Ltd., priority 2022, published 2026):

Legend:
in vivo = settings: male, CD-1, mouse, po
Protocol: (§3) CD-1 mice were randomly assigned to 6 groups with 3 male mice in each compound group. […] Compounds were orally administered (PO) in a single dose to each mouse in its group. Blood samples were taken within 72 hours. Bioavailability (F %) was determined and by liquid chromatography-mass spectrometry (LC-MS/MS).

KRAS (G12D)/SOS1 = biological target: T1, KRAS (G12D)/SOS1 (Homo sapiens, UniProt P01116, G12D); assay: KRAS (G12D)/SOS1 homogeneous time-resolved fluorescence (HTRF) assay; type: binding; settings: absence of GTP, 4° C. for 3 hr
T1 construct: purchased Cisbio 63ADK000CB17PEH
Protocol: 3-fold serial dilutions of each test compound were prepared ranging from 20 μM to 1.02 nM. The test compound was mixed and incubated with reaction components, incubated in a sealed plate at 4° C. for 3 hr and fluorescence was measured using a PerkinElmer Envision plate reader. […]

[1] = test system: ASPC1 pancreatic adenocarcinoma cells [homozygous G12D]; assay: Cancer cell line proliferation (CellTiter-Glo), ASPC1; type: cell-based; settings: Homo sapiens, ASPC-1 cells, 72 hr, read-out: CTG(IC50), ABS-72 H(nM) ASPC-1
Protocol: (§1) The following cancer cell lines were employed: AGS gastric carcinoma [heterozygous G12D] (ATCC, CRL-1739); A-427 lung carcinoma [heterozygous G12D] (ATCC, HTB-53); ASPC1 pancreatic adenocarcinoma [homozygous G12D] (ATCC, CRL-1682) and SW1990 pancreatic adenocarcinoma [homozygous G12D] (ATCC CRL-2172). Cell lines were cultured essentially according to ATCC recommendations.
(§2) AGS, A-427, ASPC1, SW1990, and GP2D cells were plated in 96-well tissue culture plates at 4,000 cells/well and incubated at 37° C./5% CO2 for 72 hr in 100 μl of media. 3-fold serial dilutions of each test compound were prepared ranging from 20 μM to 1.02 nM. Each cell line was then treated with test compounds at various concentrations with a final concentration of 0.5% DMSO/well, and then incubated at 37° C./5% CO2 for 72 hr. 100 μl of CellTiter-Glo® Reagent (Promega Corporation, Madison, WI) was added to each well and processed according manufacturer's protocol. Results were analyzed and IC50 5 values were calculated in GraphPad 7 software.

[2] = test system: AGS gastric carcinoma cells [heterozygous G12D]; assay: Cancer cell line proliferation (CellTiter-Glo), AGS; type: cell-based; settings: Homo sapiens, 72 hr, read-out: CTG(IC50), ABS-72 H(nM) AGS
Protocol: as §1, §2

[3] = test system: A-427 lung carcinoma cells [heterozygous G12D]; assay: Cancer cell line proliferation (CellTiter-Glo), A-427; type: cell-based; settings: Homo sapiens, A427 cells, 72 hr, read-out: CTG(IC50), ABS-72 H(nM) A427
Protocol: as §1, §2

[4] = test system: SW1990 pancreatic adenocarcinoma cells [homozygous G12D]; assay: Cancer cell line proliferation (CellTiter-Glo), SW1990; type: cell-based; settings: Homo sapiens, 72 hr, read-out: CTG(IC50), ABS-72 H(nM) SW1990
Protocol: as §1, §2

[5] = Oral bioavailability in CD-1 mice; settings: male, CD-1, mouse, blood
Protocol: as §3

T1 sequence (P01116 1-188 isoform P01116-2 G12D): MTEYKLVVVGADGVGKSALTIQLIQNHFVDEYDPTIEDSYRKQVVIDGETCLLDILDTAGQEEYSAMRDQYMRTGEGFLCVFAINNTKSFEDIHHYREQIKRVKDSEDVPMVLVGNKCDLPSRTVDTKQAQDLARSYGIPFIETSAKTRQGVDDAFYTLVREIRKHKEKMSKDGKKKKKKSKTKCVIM

SMILES | bioavailability (in vivo) [%] | IC50 (KRAS (G12D)/SOS1) [nM] | IC50 [1] [nM] | IC50 [2] [nM] | IC50 [3] [nM] | IC50 [4] [nM] | bioavailability ([5]; 25 mg/kg) [%] | bioavailability [5] [%]
C#Cc1c(F)ccc2cc(O)cc(-c3ncc4c(N5CC6CCC(C5)N6)nc(OCC5(CN6CC7C(F)C7C6)CC5)nc4c3F)c12 (stereo not drawn) [Example 149] | 12.9 |  |  |  |  |  |  | 
COc1nc(-c2cc(N)cc(Cl)c2C(F)(F)F)c(F)c2nc(OCC3(CN4CC5CC5C4)CC3)nc(N3CC4CCC(C3)N4)c12 (stereo not drawn) [Example 165] | 13.8 |  |  |  |  |  |  | 
[2H]C([2H])([2H])Oc1nc(-c2cc(O)cc3ccc(F)c(C#C)c23)c(F)c2nc(OCC3(CN4CC5CC5C4)CC3)nc(N3CC4CCC(C3)N4)c12 (stereo not drawn) [Example 4] |  | < 100 | < 100 | < 100 | < 100 | < 100 | 5.4 | 
C#Cc1c(F)ccc2c(F)c(O)cc(-c3nc(OC)c4c(N5CC6CCC(C5)N6)nc(OCC5(CN6CC7CC7C6)CC5)nc4c3F)c12 (stereo not drawn) [Example 168] | 13.6 |  |  |  |  |  |  | 
C#Cc1c(F)ccc2cc(O)cc(-c3ncc4c(N5CC6CCC(C5)N6)nc(OCC5(CN6CC7C(C6)C7C(F)(F)F)CC5)nc4c3F)c12 (stereo not drawn) [Example 37] |  | < 100 | < 100 | < 100 | 100 to 1000 | < 100 |  | 10.6
C#Cc1c(F)ccc2cc(O)cc(-c3nc(OC)c4c(N5CC6CCC(C5)N6C(=O)OC(C)OC(C)=O)nc(OCC5(CN6CC7CC7C6)CC5)nc4c3F)c12 (stereo not drawn) [Example 146] | 8.3 |  |  |  |  |  |  | 
C#Cc1c(F)ccc2cc(O)cc(-c3nc(OC)c4c(N5CC6CCC(C5)N6)nc(OCC5(CN6CCC7CC76)CC5)nc4c3F)c12 (stereo not drawn) [Example 43] |  | < 100 | < 100 | < 100 | 100 to 1000 | < 100 |  | 2.37
C#Cc1c(F)ccc2cc(O)cc(-c3ncc4c(N5CC6CCC(C5)N6)nc(OCC5(CN6CCC(F)CC6)CC5)nc4c3F)c12 [Example 1, 4-(4-(3,8-diazabicyclo[3.2.1]octan-3-yl)-8-fluoro-2-((1-((4-fluoropiperidin-1-yl)methyl)cyclopropyl)methoxy)pyrido[4,3-d]pyrimidin-7-yl)-5-ethynyl-6-fluoronaphthalen-2-ol] |  | < 100 | < 100 | < 100 | < 100 | < 100 | 0.8 | 
C#Cc1c(F)ccc2cc(O)cc(-c3nc(OC)c4c(N5CC6CCC(C5)N6)nc(OCC5(CN6CC7C(F)C7C6)CC5)nc4c3F)c12 (stereo not drawn) [Example 155] | 8.03 |  |  |  |  |  |  | 
C#Cc1c(F)ccc2cc(N)cc(-c3nc(OC)c4c(N5CC6CCC(C5)N6)nc(OCC5(CN6CC7CC7C6)CC5)nc4c3F)c12 (stereo not drawn) [Example 184] | 5.75 |  |  |  |  |  |  | 
C#Cc1c(F)ccc2cc(O)cc(-c3ncc4c(N5CC6CCC(C5)N6)nc(OCC5(CN6CCC(C(F)(F)F)CC6)CC5)nc4c3F)c12 [Example 14] |  | < 100 | < 100 | < 100 | < 100 | < 100 |  | 5.81
[2H]C([2H])([2H])Oc1nc(-c2cc(O)cc3ccc(F)c(C#C)c23)c(F)c2nc(OCC3(CN4CC5C(F)C5C4)CC3)nc(N3CC4CCC(C3)N4)c12 (stereo not drawn) [Example 167] | 7.14 |  |  |  |  |  |  | 
C#Cc1c(F)ccc2cc(O)cc(-c3ncc4c(N5CC6CCC(C5)N6)nc(OCC5(CN6CC7C(C#N)C7C6)CC5)nc4c3F)c12 (stereo not drawn) [Example 44] |  | < 100 | < 100 | < 100 | 100 to 1000 | < 100 |  | 2.38
C#Cc1c(F)ccc2cc(O)cc(-c3nc(OC)c4c(N5CC6CCC(C5)N6C(=O)OCOC(=O)C(C)C)nc(OCC5(CN6CC7CC7C6)CC5)nc4c3F)c12 (stereo not drawn) [Example 148] | 6.8 |  |  |  |  |  |  | 
C#Cc1c(F)ccc2cc(O)cc(-c3nc(OC)c4c(N5CC6CCC(C5)N6)nc(OCC5(CN6CCC(F)CC6)CC5)nc4c3F)c12 [Example 19] |  | < 100 | < 100 | < 100 | < 100 | < 100 |  | 9.39
C#Cc1cccc2cc(O)cc(-c3ncc4c(N5CC6CCC(C5)N6)nc(OCC5(CN6CC7C(C6)C7(F)F)CC5)nc4c3F)c12 (stereo not drawn) [Example 100] | 1.7 |  |  |  |  |  |  | 
